Consider 22 compounds from ChEMBL document CHEMBL1201862, “PubChem BioAssay data set” (2004).

Calls of active or inactive are those of the source.

The target of test [1] is T1, DNA repair protein RAD52 homolog (Homo sapiens, UniProt P43351).
T1 sequence (P43351 whole entry): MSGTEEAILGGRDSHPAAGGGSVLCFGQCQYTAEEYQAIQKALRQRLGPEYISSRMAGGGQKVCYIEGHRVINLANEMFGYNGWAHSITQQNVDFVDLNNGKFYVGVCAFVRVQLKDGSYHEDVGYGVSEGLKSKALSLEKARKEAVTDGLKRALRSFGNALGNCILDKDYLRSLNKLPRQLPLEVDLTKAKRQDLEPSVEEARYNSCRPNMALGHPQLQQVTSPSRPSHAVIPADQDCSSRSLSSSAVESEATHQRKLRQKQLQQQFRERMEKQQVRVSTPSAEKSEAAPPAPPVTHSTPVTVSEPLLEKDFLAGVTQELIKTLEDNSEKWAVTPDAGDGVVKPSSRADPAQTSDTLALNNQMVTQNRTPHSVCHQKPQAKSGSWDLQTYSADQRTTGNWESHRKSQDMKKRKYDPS
The test is classed as functional, biochemical.

The target of test [2] is Glucose-6-phosphate 1-dehydrogenase (Homo sapiens, UniProt P11413). Briefly: human G6PD enzyme inhibitors, dose response, selectivity assay for P. falciparum G6PD inhibitor project, biochemical, fluorescence (AID 504792). The test is classed as functional.
Sequence of Glucose-6-phosphate 1-dehydrogenase (P11413 whole entry): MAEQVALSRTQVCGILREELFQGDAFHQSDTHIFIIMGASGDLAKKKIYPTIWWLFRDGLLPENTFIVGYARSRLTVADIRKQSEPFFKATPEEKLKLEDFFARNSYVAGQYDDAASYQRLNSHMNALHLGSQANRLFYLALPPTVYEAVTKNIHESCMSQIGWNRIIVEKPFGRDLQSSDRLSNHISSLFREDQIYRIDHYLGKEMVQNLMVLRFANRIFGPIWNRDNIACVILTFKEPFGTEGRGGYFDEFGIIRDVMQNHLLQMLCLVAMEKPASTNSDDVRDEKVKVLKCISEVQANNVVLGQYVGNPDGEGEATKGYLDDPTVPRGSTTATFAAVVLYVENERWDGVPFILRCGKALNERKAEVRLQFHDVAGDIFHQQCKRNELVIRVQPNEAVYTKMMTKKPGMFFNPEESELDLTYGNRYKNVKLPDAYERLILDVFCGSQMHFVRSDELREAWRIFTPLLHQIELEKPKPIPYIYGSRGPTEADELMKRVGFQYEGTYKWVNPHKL
Test [3] is described as follows: A cytotoxicity screen of small molecule inhibitors of the PhoP region in Salmonella typhi identified in the primary screen. [Related pubchem assays: 1850, 1864, 1985 ]. The test is classed as functional.
The target of a further test is T2, Aminopeptidase N (Plasmodium falciparum FcB1/Columbia, UniProt O96935).
T2 sequence (O96935 whole entry): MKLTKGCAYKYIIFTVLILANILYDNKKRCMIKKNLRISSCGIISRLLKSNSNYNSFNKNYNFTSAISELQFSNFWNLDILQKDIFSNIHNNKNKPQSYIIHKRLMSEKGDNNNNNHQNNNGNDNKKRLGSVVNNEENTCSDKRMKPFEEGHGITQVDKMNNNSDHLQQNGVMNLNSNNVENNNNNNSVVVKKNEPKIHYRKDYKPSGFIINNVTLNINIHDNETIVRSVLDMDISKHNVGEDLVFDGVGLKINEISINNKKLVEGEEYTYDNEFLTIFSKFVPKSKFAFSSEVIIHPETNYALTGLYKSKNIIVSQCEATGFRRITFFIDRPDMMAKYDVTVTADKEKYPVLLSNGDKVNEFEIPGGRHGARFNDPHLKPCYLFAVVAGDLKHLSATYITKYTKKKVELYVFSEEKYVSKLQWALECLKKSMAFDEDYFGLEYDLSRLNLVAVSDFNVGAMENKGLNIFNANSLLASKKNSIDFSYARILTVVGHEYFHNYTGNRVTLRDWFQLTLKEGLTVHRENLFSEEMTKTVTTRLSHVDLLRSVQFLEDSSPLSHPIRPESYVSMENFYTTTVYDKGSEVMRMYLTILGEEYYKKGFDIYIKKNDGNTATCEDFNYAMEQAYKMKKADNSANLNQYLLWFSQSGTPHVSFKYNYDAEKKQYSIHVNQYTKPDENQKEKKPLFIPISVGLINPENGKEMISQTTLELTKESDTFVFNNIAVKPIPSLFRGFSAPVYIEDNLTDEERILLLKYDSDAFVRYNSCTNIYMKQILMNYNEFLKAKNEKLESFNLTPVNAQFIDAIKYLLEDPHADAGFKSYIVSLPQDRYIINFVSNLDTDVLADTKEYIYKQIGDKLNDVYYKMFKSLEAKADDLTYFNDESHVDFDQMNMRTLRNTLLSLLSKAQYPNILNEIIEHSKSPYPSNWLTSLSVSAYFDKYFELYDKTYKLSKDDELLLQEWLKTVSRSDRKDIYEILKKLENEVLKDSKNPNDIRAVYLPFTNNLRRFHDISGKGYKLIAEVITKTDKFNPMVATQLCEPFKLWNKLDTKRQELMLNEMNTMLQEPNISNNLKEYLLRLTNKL
Description: P. falciparum M1AAP inhibitors, biochemical, fluorogenic H-Leu-NHMec substrate, 1536-well (AID 1445). More on the design: species or system Plasmodium falciparum 3D7, 3D7.

Test [4] addresses Glyceraldehyde-3-phosphate dehydrogenase (Homo sapiens, UniProt P04406).
Test [5] deals with T3, Ubiquitin-conjugating enzyme E2 N (Homo sapiens, UniProt P61088).
T3 sequence (P61088 whole entry): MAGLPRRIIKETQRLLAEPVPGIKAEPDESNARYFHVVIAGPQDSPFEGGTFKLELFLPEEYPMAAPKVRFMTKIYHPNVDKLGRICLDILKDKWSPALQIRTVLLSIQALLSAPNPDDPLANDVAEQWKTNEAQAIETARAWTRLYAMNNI
In kind it is functional.

The nature of another test: cells. In kind it is functional.
Test [6] can be described thus: THP-1 cell cytotoxicity, dose response, cytotoxicity control for non-replicating M. tuberculosis project (AID 489025). The test is classed as functional.
Test [7] in a line: Vero E6 cell cytotoxicity, dose response, cytotoxicity control for non-replicating M. tuberculosis project, secondary assay (AID 492998). The test is classed as functional, VeroE6. The following applies: Vero C1008.
In a further test the target is Nonstructural protein 1 (Influenza A virus, UniProt Q194T2). In kind it is functional, Influenza A virus (A/California/07/2009(H1N1)).
Sequence of Nonstructural protein 1 (Q194T2 whole entry): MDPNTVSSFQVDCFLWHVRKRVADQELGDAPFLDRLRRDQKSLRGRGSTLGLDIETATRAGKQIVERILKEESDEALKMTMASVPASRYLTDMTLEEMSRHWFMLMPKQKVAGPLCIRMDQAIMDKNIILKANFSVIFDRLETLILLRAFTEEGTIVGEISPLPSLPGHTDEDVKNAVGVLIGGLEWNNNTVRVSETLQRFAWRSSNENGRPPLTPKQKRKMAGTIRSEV
Another test concerns the target T4, Protein RecA (Mycobacterium tuberculosis, UniProt P9WHJ3).
T4 sequence (P9WHJ3 whole entry): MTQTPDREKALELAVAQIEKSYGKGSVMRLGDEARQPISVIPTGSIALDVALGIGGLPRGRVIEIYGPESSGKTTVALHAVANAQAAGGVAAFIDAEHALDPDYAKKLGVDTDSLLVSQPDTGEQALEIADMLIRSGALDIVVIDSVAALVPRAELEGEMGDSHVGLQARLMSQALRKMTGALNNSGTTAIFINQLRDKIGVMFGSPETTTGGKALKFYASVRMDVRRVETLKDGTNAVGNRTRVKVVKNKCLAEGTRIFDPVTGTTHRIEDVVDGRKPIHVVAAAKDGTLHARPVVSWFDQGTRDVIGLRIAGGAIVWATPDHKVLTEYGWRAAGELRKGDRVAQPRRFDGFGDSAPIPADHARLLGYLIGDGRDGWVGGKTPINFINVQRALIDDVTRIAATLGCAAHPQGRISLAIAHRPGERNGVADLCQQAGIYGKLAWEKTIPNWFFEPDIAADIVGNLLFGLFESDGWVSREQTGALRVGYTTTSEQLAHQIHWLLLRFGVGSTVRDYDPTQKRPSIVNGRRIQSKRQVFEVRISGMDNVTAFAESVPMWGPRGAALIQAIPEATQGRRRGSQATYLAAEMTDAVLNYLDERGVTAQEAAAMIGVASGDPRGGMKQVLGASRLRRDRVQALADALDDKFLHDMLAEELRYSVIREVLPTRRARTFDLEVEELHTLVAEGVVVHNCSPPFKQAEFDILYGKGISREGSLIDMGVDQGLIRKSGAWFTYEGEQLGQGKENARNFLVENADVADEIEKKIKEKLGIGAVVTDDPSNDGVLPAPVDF
Briefly: Fluorescence Cell-Free Homogeneous Dose Retest to Identify Inhibitors of RecA-Intein Splicing Activity. [Related pubchem assays (depositor defined):AID2097, AID2223, AID489010, AID492950]. In kind it is functional.

A further test has as its target Genome polyprotein (dengue virus type 2, UniProt P29990). Description: Dengue-2 NS5 methyltransferase inhibitors, primary screen, biochemical, confirmation dose response (AID 588689). The test is classed as functional.
Test [8] concerns the target T5, Replicative DNA helicase DnaB (Mycobacterium tuberculosis, UniProt P9WMR3).
T5 sequence (P9WMR3 whole entry): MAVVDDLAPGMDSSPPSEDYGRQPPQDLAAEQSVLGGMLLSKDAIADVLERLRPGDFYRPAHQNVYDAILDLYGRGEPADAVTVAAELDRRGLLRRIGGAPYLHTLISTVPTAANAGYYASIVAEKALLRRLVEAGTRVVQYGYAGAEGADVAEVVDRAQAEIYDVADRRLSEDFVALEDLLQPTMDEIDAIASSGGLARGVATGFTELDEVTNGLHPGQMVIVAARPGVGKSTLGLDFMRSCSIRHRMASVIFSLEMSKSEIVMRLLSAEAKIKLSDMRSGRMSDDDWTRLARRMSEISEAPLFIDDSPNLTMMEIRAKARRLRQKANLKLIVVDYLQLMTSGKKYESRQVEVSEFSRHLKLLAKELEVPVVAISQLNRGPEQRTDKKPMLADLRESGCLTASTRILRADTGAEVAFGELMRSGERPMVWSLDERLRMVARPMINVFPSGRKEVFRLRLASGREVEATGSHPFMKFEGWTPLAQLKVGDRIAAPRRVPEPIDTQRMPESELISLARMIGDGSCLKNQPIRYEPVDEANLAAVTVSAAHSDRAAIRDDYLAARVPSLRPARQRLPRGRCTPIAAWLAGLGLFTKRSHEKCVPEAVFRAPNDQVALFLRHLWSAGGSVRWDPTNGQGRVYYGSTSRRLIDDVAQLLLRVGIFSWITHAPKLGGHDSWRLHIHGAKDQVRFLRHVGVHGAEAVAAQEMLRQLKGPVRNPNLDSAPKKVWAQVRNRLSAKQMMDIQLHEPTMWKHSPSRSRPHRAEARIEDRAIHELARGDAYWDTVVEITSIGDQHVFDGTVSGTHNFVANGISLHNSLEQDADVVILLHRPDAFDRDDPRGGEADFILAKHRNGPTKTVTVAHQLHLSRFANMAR
Description: DnaB intein splicing inhibitors, dose response, biochemical, cell-free fluorescence (AID 449749). In kind it is functional.

Test [9] is described as follows: inhibitors of intracellular T. cruzi replication, confirmation, NIH3T3 host cells, beta-gal luminescence (AID 2044).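 Also: intracellular parasites grown in NIH/3T3 mouse fibroblasts as host cells; luminescent beta-galactosidase reporter signal from transgenic T. cruzi replicating inside host cells; inhibitors lower the luminescence signal.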 In kind it is functional, cell-based.
Test [10] can be described thus: cytotoxicity toward NIH3T3 fibroblasts, dose response, counter-screen, cell-based, ATP luminescence, mouse fibroblasts (AID 2010).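 Also: cells exposed to compound for about 90 hours before reading.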 In kind it is functional. For orientation: A counterscreen serves to expose hits that act by an unwanted route or on another target.

Sequence of Glyceraldehyde-3-phosphate dehydrogenase (P04406 whole entry): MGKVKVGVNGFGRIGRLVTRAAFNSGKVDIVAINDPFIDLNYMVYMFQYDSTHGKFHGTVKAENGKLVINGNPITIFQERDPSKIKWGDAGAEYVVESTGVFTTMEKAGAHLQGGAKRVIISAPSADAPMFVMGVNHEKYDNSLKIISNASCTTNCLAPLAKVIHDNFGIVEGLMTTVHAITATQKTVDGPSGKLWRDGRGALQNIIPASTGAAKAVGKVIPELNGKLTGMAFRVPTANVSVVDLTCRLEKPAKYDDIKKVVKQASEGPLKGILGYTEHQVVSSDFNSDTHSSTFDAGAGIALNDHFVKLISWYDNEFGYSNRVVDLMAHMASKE
Sequence of Genome polyprotein (P29990 2492-3391 limits assumed): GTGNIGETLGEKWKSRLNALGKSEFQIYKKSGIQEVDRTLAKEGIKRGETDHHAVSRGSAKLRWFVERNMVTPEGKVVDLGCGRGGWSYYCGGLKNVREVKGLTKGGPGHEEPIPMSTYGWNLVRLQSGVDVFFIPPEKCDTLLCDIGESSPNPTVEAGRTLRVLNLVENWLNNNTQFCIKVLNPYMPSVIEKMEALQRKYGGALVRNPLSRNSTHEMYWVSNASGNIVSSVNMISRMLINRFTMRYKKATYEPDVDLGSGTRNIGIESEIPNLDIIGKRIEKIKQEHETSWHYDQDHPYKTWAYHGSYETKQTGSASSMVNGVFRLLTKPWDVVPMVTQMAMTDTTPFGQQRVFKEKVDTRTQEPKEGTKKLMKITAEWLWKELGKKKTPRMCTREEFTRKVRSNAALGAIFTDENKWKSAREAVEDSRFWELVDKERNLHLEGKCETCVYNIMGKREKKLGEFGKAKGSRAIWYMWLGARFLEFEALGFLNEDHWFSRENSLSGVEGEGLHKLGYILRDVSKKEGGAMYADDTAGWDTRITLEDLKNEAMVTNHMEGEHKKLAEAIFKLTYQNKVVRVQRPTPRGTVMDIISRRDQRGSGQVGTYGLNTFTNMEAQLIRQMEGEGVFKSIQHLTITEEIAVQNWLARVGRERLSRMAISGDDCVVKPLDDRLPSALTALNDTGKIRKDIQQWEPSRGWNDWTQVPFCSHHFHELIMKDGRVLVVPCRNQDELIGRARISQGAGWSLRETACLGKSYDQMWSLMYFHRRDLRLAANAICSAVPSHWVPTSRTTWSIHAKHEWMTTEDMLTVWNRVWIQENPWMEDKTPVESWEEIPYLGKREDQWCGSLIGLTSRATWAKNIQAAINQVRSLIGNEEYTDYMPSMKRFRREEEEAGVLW

As usually defined, the AC50 is the concentration giving half of the maximal activity seen. As usually defined, the IC50 is the concentration that gives 50% inhibition. Consider `CCN1CCCC1CNC(=O)c1ccc2c(c1)NC(=O)/C(=C\c1ccccc1F)S2` (centres undefined), for which the AC50 in test [1] was 6.33 µM (active). Besides, in [2], the IC50 was > 80 µM (inactive). Usually EC50 stands for the midpoint of the concentration-response curve. Regarding `CC1CCCCN1S(=O)(=O)c1ccc(S(=O)(=O)NCCc2ccncc2)cc1` (centres undefined), the EC50 in [3] is > 50 µM (active). Turning to `CC(C)Cc1nc(N2CCOCC2)c(C#N)c2c1COC(C)(C)C2`, the EC50 in test [3] is > 50 µM (active).

In the case of `O=C(N/N=C/c1ccccc1C(=O)O)c1cc(-c2ccc3c4c(cccc24)CC3)[nH]n1`, the IC50 at Aminopeptidase N is 85.2 µM (active). The same measure, in the same setting: in the case of `CCCCN(CC)Cc1c(O)ccc2c3c(c(=O)oc12)CCC3` it was 57.7 µM (active). Turning to `O=C1C(Cl)=C(N2CCN(Cc3ccc4c(c3)OCO4)CC2)C(=O)N1c1cccc(C(F)(F)F)c1`, the IC50 in [4] is > 50 µM (inconclusive).

Usually CC50 stands for the concentration at which the toxic effect on the cells reaches its halfway point. Take `CCc1ccc(OCC(=O)NNC(=O)c2cnccn2)c(Br)c1`: the IC50 in test [5] was > 20 µM (inactive); in the test “cells”, 9.66 µM (active). Also, the CC50 in test [6] was > 40 µM (active); in test [7], 18.8 µM (active). Take `Oc1c2c(nc3c(-c4ccccc4)cnn13)CCCC2`: the IC50 in the test “cells” is 44 µM (active). The CC50 in test [6] was > 40 µM (active); in test [7], > 20 µM (active). `Cc1ccsc1C(C(=O)NC1CCCCC1)N(C(=O)c1csnn1)C1CC1` (centres undefined): at Aminopeptidase N, the IC50 is 87.7 µM (active).

Turning to `O=C1c2cccc3cccc(c23)C(=O)N1CCCc1nnc(S)n1-c1ccccc1`, the IC50 on Aminopeptidase N was 17.9 µM (active). As to `COc1cccc(-c2nnc(SCC(=O)O)[nH]2)c1`, in [4], the half-maximal inhibitory concentration (IC50) was > 100 µM (not active). Regarding `COc1cc(/C=C2\SC(c3ccccc3)=NC2=O)cc(Cl)c1O`, the IC50 is 12.7 µM (active) at Nonstructural protein 1 and 20 µM (active) on Aminopeptidase N.

Take `Cc1oc2cc([N+](=O)[O-])c(O)c([N+](=O)[O-])c2c1C(=O)c1ccc(Br)cc1`: the EC50 at Protein RecA was 7.96 µM (active). Further, the IC50 was 45.2 µM (active) on Genome polyprotein and 77 µM (active) at Aminopeptidase N. Further, the AC50 in test [8] is 8.65 µM (active). `CCOC(=O)COn1c(=O)c(-c2cccs2)[n+]([O-])c2ccccc21`: in test [3], the EC50 was > 50 µM (active). In the case of `COc1ccc(CCCC(=O)NCc2ccccc2)cc1C`, the CC50 is 9.44 µM (active) in [6] and > 20 µM (active) in [7]. As for `CCc1ccc(NC(=O)Nc2ccncc2)cc1`, the EC50 in test [3] was > 50 µM (active). On the same count and under the same terms, in the case of `COc1ccccc1NC(=O)Cn1nc(-c2ccncc2)nc1SCC(=O)NC1CCCC1` it was > 50 µM (active).

For the compound `O=C(Nc1ccccc1N1CCN(C(=O)c2ccc(Cl)cc2)CC1)c1ccc([N+](=O)[O-])o1`, the EC50 in [9] is 1.32 µM (active); in [10] it was 37.2 µM (active). The figures for the CC50 in [6] and in test [7] were 12.8 µM (active) and 5.96 µM (active), respectively.

Consider `CC(=O)O[C@H]1C[C@@H]2CC[C@@H]3[C@H](CC[C@@]4(C)[C@H]3C[C@H]([N+]3(C)CCCCC3)[C@@H]4OC(C)=O)[C@@]2(C)C[C@@H]1[N+]1(C)CCCCC1` [PANCURONIUM BROMIDE], for which the AC50 in test [1] was 8.3 µM (active). As for `COc1ccc(OC)c(CCNC(=O)CS(=O)(=O)Cc2nc(-c3ccccc3C)oc2C)c1`, the EC50 in [3] is > 50 µM (active).

For the compound `CN(C)CCCN(C(=O)c1ccc(C(=O)c2ccccc2)cc1)c1nc2cc3c(cc2s1)OCO3`, the IC50 in test [5] is > 20 µM (inactive). For the same compound, the AC50 in test [1] is 7.81 µM (active). In the case of `O=C(CC(=O)c1ccccc1O)c1cccc(F)c1`, the IC50 in the test “cells” was 17.4 µM (active). For the same compound, the CC50 in [6] is > 40 µM (active); in test [7] it was 16.5 µM (active).
